Legend:
Septoria tritici = assay: Example D: in vivo preventive test on Septoria tritici (leaf spot on wheat)
Description: Example D: In Vivo Preventive Test on Septoria tritici (Leaf Spot on Wheat)
(§1) • Solvent: 5% by volume of dimethyl sulfoxide • 10% by volume of acetone • Emulsifier: 1 μL of Tween® 80 per mg of active ingredient
The active compounds were made soluble and homogenized in a mixture of dimethyl sulfoxide/acetone//Tween® 80 and then diluted in water to the desired concentration.
The young plants of wheat were treated by spraying the active compound prepared as described above. Control plants were treated only with an aqueous solution of acetone/dimethyl sulfoxide/Tween® 80.
After 24 hours, the plants were contaminated by spraying the leaves with an aqueous suspension of Septoria tritici spores. The contaminated wheat plants were incubated for 72 hours at 18° C. and at 100% relative humidity and then for 21 days at 20° C. and at 90% relative humidity.
The test was evaluated 24 days after the inoculation. 0% means an efficacy which corresponds to that of the control plants while an efficacy of 100% means that no disease is observed.

Pyricularia oryzae = assay: microbe, parasite or virus in culture; format: cell-based; conditions: for Efficacy: inhibition of fungal growth, liquid culture; for inhibition at 20 ppm: Pyricularia oryzae, 120 h, read-out: efficacy (inhibition of fungal growth)
Botrytis cinerea = assay: Example B: in vivo preventive test on Botrytis cinerea (grey mould); conditions: evaluated 4 to 5 days after inoculation
Description: Example B: In Vivo Preventive Test on Botrytis cinerea (Grey Mould)
as §1
The tested compounds were made soluble and homogenized in a mixture of dimethyl sulfoxide/acetone//Tween® 80 and then diluted in water to the desired concentration.
The young plants of gherkin were treated by spraying the tested compounds prepared as described above. Control plants were treated only with an aqueous solution of acetone/dimethyl sulfoxide/Tween® 80.
After 24 hours, the plants were contaminated by spraying the leaves with an aqueous suspension of Botrytis cinerea spores. The contaminated gherkin plants were incubated for 4 to 5 days at 17° C. and at 90% relative humidity.
The test was evaluated 4 to 5 days after the inoculation. 0% means an efficacy which corresponds to that of the control plants while an efficacy of 100% means that no disease is observed.

[1] = log P by HPLC on reversed-phase column (C18), EEC Directive 79/831 Annex V.A8; format: physicochemical; conditions: for chromatographic logP: reversed-phase HPLC column (C18)
Method in brief: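 Retention time on C18 reversed-phase HPLC at 40 °C, gradient 10% to 95% acetonitrile with either 0.1% aqueous formic acid (Method A) or 0.001 molar ammonium acetate (Method B). Calibrated with unbranched alkan-2-ones (C3–C16) of known log P by linear interpolation between successive alkanones.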

[2] = dose 0.06 ppm, 5 days incubation
[3] = dose 0.25 ppm, 5 days incubation
[4] = dose 500 ppm, preventive spray on gherkin plants
[5] = Method B: 40° C., 0.001 molar ammonium acetate solution in water and acetonitrile
[6] = 4 ppm of active ingredient, 5 days incubation
[7] = 500 ppm of active ingredient, gherkin plants, preventive
[8] = Method A: 40° C., 0.1% aqueous formic acid and acetonitrile

SMILES	Efficacy (Pyricularia oryzae; 1 ppm, 5 days incubation) [%]	Efficacy (Pyricularia oryzae; 4 ppm, 5 days incubation) [%]	Efficacy (Pyricularia oryzae; 20 ppm, 5 days incubation) [%]	Efficacy (Botrytis cinerea; [4]) [%]	logP [1, 8]	also measured
Cc1nc2c(F)c(F)ccc2cc1Oc1ccccc1C[Si](C)(C)C [CMP1, 7,8-difluoro-2-methyl-3-{2-[(trimethylsilyl)methyl]phenoxy}quinoline, reference compound]	–	–	–	–	–	Efficacy (Septoria tritici; 500 ppm of active ingredient, evaluated 24 days after inoculation): no protection; Efficacy (Septoria tritici; Table D, dose 500 ppm): 0%; Efficacy (Pyricularia oryzae; [2]): 1%; Efficacy (Pyricularia oryzae; [3]): 56%; efficacy (inhibition of fungal growth) (Pyricularia oryzae; dose of 0.25 ppm or 0.06 ppm): much lower efficacy
Cc1nc2c(F)c(F)ccc2cc1Oc1cccc(F)c1[Si](C)(C)C [I.027]	85	94	100	92	–	logP [1, 5]: 5.54
C[Si](C)(C)c1c(F)cccc1Oc1ccnc2cccnc12 [CMP4, 4-[3-fluoro-2-(trimethylsilyl)-phenoxy]-1,5-naphthyridine, reference compound]	0	11	44	0	–	efficacy (inhibition of fungal growth) (Pyricularia oryzae; [6]): much lower efficacy; Efficacy (Botrytis cinerea; [7]): no efficacy
Cc1nc2c(F)c(F)ccc2cc1Oc1ccccc1[Si](C)(C)C [I.024]	–	–	–	–	6.01	Efficacy (Septoria tritici; Table D, dose 500 ppm): 81%; Efficacy (Pyricularia oryzae; [2]): 89%; Efficacy (Pyricularia oryzae; [3]): 96%; efficacy (inhibition of fungal growth) (Pyricularia oryzae; dose of 0.25 ppm or 0.06 ppm): at least 80%
Cc1cc(Oc2cccc(F)c2[Si](C)(C)C)c2ccc(F)c(F)c2n1 [CMP3, 7,8-difluoro-4-[3-fluoro-2-(trimethylsilyl)phenoxy]-2-methylquinoline, reference compound]	0	25	96	0	–	efficacy (inhibition of fungal growth) (Pyricularia oryzae; [6]): much lower efficacy; Efficacy (Botrytis cinerea; [7]): no efficacy
C[Si](C)(C)c1c(F)cccc1Oc1cnc2cccnc2c1 [I.116]	90	100	100	73	4.15	–
Cc1nc2c(F)c(F)ccc2cc1Oc1cccc(F)c1[Si](C)(C)F [I.032, 7,8-difluoro-3-{3-fluoro-2-[fluoro(dimethyl)silyl]phenoxy}-2-methylquinoline]	–	–	–	–	–	inhibition at 20 ppm (Pyricularia oryzae): 90 to 100%; chromatographic logP [1, 8]: 4.75
C[Si]1(C)OCc2cccc(Nc3cnc4ccccc4c3)c21 [I.010, N-(1,1-dimethyl-1,3-dihydro-2,1-benzoxasilol-7-yl)quinolin-3-amine]	–	–	–	–	–	inhibition at 20 ppm (Pyricularia oryzae): 80 to 89%; chromatographic logP [1, 5]: 3.15
C[Si](C)(C)c1cc(F)ccc1Oc1cnc2c(Cl)cccc2c1 [I.019]	45	98	97	–	5.62	–
